Measurements: the supplement of paper PMC10307832

Assays:
Test in all cases: relative viability (nuclei count vs DMSO), 5 days (fraction); higher = more cells survive
[1] = compound: CC(C)C[C@H](NC(=O)[C@H](Cc1ccccc1)NC(=O)c1cnccn1)B(O)O [Bortezomib] + CS(=O)(=O)N1CCN(Cc2cc3nc(-c4cccc5[nH]ncc45)nc(N4CCOCC4)c3s2)CC1 [Pictilisib] (partner 1 µM)
Summary of the method: (§1)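 A single step with final 0.05% Triton X-100, 1% formaldehyde and 1 ug/ml Hoechst fixed the cells and stained nuclei 5 days after treatment. Lung cancer cell lines in 1536-well plates had been treated by pin tool the day after seeding with one drug alone or a fixed anchor-drug dose plus five library-drug doses (not always all listed) in √10 steps, and nuclei were counted on 4× images. Relative viability is the ratio of nuclei in treated wells to nuclei in vehicle wells, taken as the median of duplicate plates.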

[2] = compound: CC1=CC(=NN1)NC2=CC(=NC(=N2)/C=C/C3=CC=CC=C3)N4CCN(CC4)C + CC(=O)Nc1cccc(-n2c(=O)n(C3CC3)c(=O)c3c(Nc4ccc(I)cc4F)n(C)c(=O)c(C)c32)c1 [Trametinib] (partner 0.02 µM)
Summary of the method: as §1

[3] = compound: CC1=CC(=NN1)NC2=CC(=NC(=N2)/C=C/C3=CC=CC=C3)N4CCN(CC4)C + CS(=O)(=O)N1CCN(Cc2cc3nc(-c4cccc5[nH]ncc45)nc(N4CCOCC4)c3s2)CC1 [Pictilisib] (partner 1 µM)
Summary of the method: as §1

[4] = compound: COC1=CC(c2cc3ccccc3[nH]2)=N/C1=C\c1[nH]c(C)cc1C [Obatoclax] + N=C(N)NC(=N)NCCc1ccccc1 [Phenformin] (partner 250 µM)
Summary of the method: as §1

Cell Line	relative viability ([1]; first compound 0.0002 µM)	relative viability ([1]; first compound 0.000632 µM)	relative viability ([1]; first compound 0.002 µM)	relative viability ([1]; first compound 0.006325 µM)	relative viability ([1]; first compound 0.02 µM)	relative viability ([2]; first compound 0.08 µM)	relative viability ([2]; first compound 0.253 µM)	relative viability ([2]; first compound 0.8 µM)	relative viability ([2]; first compound 2.53 µM)	relative viability ([2]; first compound 8 µM)	relative viability ([3]; first compound 0.08 µM)	relative viability ([3]; first compound 0.253 µM)	relative viability ([3]; first compound 0.8 µM)	relative viability ([3]; first compound 2.53 µM)	relative viability ([3]; first compound 8 µM)	relative viability ([4]; first compound 0.01 µM)	relative viability ([4]; first compound 0.03162 µM)	relative viability ([4]; first compound 0.1 µM)	relative viability ([4]; first compound 0.3162 µM)	relative viability ([4]; first compound 1 µM)
SK-LU-1	0.521	0.528	0.503	0.166	0.14	0.502	0.266	0.555	0.229	0.129	0.595	0.587	0.56	0.285	0.0825	0.587	0.507	0.414	0.246	0.244
NCI-H23		0.407	0.381	0.144	0.131	0.302	0.317	0.257	0.142	0.118	0.462	0.48	0.382	0.296	0.134	0.745	0.746	0.821	0.718	0.597
NCI-H1355	0.376	0.396	0.497	0.202	0.136	0.457	0.435	0.415	0.334	0.151	0.412	0.36	0.395	0.263	0.118	0.456	0.458	0.431	0.44	0.397
COR-L23	0.922	0.777	0.609	0.0347	0.0399	0.549	0.244	0.574	0.102	0.0853	0.73	0.929	0.765	0.177	0.0607	0.443	0.479	0.425	0.328	0.216
NCI-H2023	0.235	0.215	0.286	0.162	0.0837	0.522	0.649	0.449	0.0864	0.0663	0.203	0.266	0.197	0.0664	0.0528	0.387	0.438	0.425	0.293	0.152
A-427	0.673	0.626	0.771	0.703	0.175	0.632	0.6	0.76	0.451	0.215	0.836	0.247	0.741	0.401	0.11	0.339	0.342	0.32	0.287	0.165
UMC-11	0.703	0.751	0.741	0.393	0.138	0.682	0.681	0.503	0.162	0.101	0.79	0.813	0.606	0.158	0.108	0.303	0.294	0.291	0.272	0.242
NCI-H596	0.513	0.369	0.327	0.15	0.128	0.846	1.07	0.839	0.4	0.216	0.406	0.417	0.388	0.253	0.271	0.768	0.764	0.741	0.711	0.583
LU99A	0.385		0.35	0.328	0.169	0.54	0.311	0.532	0.328	0.165	0.328	0.296	0.284	0.157	0.142	0.885	0.854	0.74	0.77	0.417
NCI-H2009	0.602	0.675	0.797	0.0767	0.06	0.309	0.22	0.215	0.139	0.0702	0.754	0.415	0.781	0.25	0.142	0.472	0.507	0.385	0.27	0.194
